Source: ChEMBL document CHEMBL4680175, “Sulfonamide-based ring-fused analogues for CAN508 as novel carbonic anhydrase inhibitors endowed with antitumor activity: Design, synthesis, and in vitro biological evaluation” (Eur J Med Chem, 2020)

Tests used:
Type in all cases: functional
MDA-MB-468 [1] = test: Potency index, ratio of staurosporine IC50 to compound IC50 for antiproliferative activity against human MDA-MB-468 cells measured after 48 hrs under normoxic condition by MTT assay
MDA-MB-468 [2] = test: Potency index, ratio of staurosporine IC50 to compound IC50 for antiproliferative activity against human MDA-MB-468 cells measured after 48 hrs under CoCl2-induced hypoxic condition by MTT assay
MCF7 [3] = test: Induction of apoptosis in human MCF7 cells assessed as early apoptotic cells by Annexin V-FITC/propidium iodide staining based flow cytometric analysis (reference value: 0.47 %)
MCF7 [4] = test: Induction of apoptosis in human MCF7 cells assessed as necrotic cells by Annexin V-FITC/propidium iodide staining based flow cytometric analysis (reference value: 1.3 %)
MCF7 [5] = test: Induction of apoptosis in human MCF7 cells assessed as fold increase in apoptotic cells by Annexin V-FITC/propidium iodide staining based flow cytometric analysis relative to control

Question: Which “Ratio IC50” value (MDA-MB-468 [1]) does the source give for `Cc1ccc(-c2nc3c(/N=N/c4ccc(S(N)(=O)=O)cc4)c(N)nn3c(N)c2C#N)cc1` here?
Answer: 3.1

Question: And the “Ratio IC50” value (MDA-MB-468 [2])?
Answer: 2.1

Question: Which Activity (MCF7 [3]) does the source give for `N#Cc1c(-c2ccc(Cl)cc2)nc2c(/N=N/c3ccc(S(N)(=O)=O)cc3)c(N)nn2c1N` here?
Answer: 5.88%

Question: What about the Activity (MCF7 [4]) of the same compound?
Answer: 2.17%

Question: And the “fold change (FC)” value (MCF7 [5])?
Answer: 18

Question: With `N#Cc1c(-c2ccc(F)cc2)nc2c(/N=N/c3ccc(S(N)(=O)=O)cc3)c(N)nn2c1N` as the compound, how does the Activity (MCF7 [3]) read?
Answer: 6.58%

Question: What about the Activity (MCF7 [4]) of the same compound?
Answer: 1.75%

Question: And the “fold change (FC)” value (MCF7 [5])?
Answer: 23
